US12227488B2, “Small molecule degraders of Helios and methods of use” (DANA-FARBER CANCER INSTITUTE, INC., priority 2018, dated 2025)

Tests used:
[1] = molecular target: T1, CRBN and Helios (IKZF2) (Homo sapiens, UniProt Q96SW2+Q9UKS7); assay: TR-FRET dimerization assay (CRBN-IKZF2 ternary complex formation); format: binding; conditions: n=1
T1 construct: His (N); Strep (N)
Procedure: A focused library of imide analogs was synthesized and assessed for their ability to induce dimerization between CRBN and Helios in a time-resolved fluorescence energy transfer (TR-FRET) assay (FIG. 1A).
Prior to TR-FRET measurements being conducted, the reactions were incubated for 15 min at rt. […] The TR-FRET signal of each data point was extracted by calculating the 520/490 nm ratios. Data from single measurements (n=1), each calculated as an average of at least three technical replicates per well per experiment are presented in Table 1.
BODIPY-labeled CRBN in complex with Damage Specific DNA Binding Protein 1 (DDB1) harboring an internal deletion of the flexible BPB propeller (DDB1AB-CRBN) and in vitro biotinylated IKZF2 were treated with increasing concentrations of the indicated compounds in the presence of tracer amounts of Terbium-Streptavidin (Tb-SA). Compound-induced recruitment of IKZF2 to CRBN was quantified following the 520/490 TR-FRET ratio using a PHERAstar® plate reader (BMG) utilizing two synchronized PMTs to reduce background.

[2] = tested on: IKZF2; assay: Cellular degradation assay, eGFP-IKZF2Δ fusion with mCherry reporter in Flp-In 293 cells; format: cell-based; conditions: for IKZF2 GFP/RFP Relative Abundance: 5 h incubation, n=1
Procedure: (§1) IKZF1Δ, IKZF2Δ, GSPT1 and SALL4 ZnF1-2 were subcloned into mammalian pcDNA5/FRT Vector (Ampicillin and Hygromycin B resistant) modified to contain MCS-eGFP-P2A-mCherry. […] Following 2-3 passage cycle, FACS (FACSAria™ II, BD) was used to enrich for cells expressing eGFP and mCherry. Cells stably expressing the IKZF1Δ, IKZF2Δ, GSPT1 or SALL4 Znf1-2 GFP fusions with mCherry reporter were seeded at 30-50% confluency in 384-well plates with 50 μL FluoroBrite™ DMEM media (Thermo Fisher Scientific, A18967) containing 10% FBS per well a day before compound treatment. Compound titrations were dispensed using a D300e Digital Dispenser (HP), normalized to 0.5% DMSO, and incubated with cells for 5 hours.
(§2) The resulting images were analyzed using CellProfiler™. A series of image analysis steps (‘image analysis pipeline’) was constructed. First, the red and green channels were aligned and cropped to target the middle of each well (to avoid analysis of heavily clumped cells at the edges), and a background illumination function was calculated for both red and green channels of each well individually and subtracted to correct for illumination variations across the 384-well plate from various sources of error. An additional step was then applied to the green channel to suppress the analysis of large auto fluorescent artifacts and enhance the analysis of cell specific fluorescence by way of selecting for objects under a given size, 30 A.U., and with a given shape, speckles. mCherry-positive cells were then identified in the red channel filtering for objects between 8-60 pixels in diameter and using intensity to distinguish between clumped objects. The green channel was then segmented into GFP positive and negative areas and objects were labeled as GFP positive if at least 40% of it overlapped with a GFP positive area. The fraction of GFP-positive cells/mCherry-positive cells in each well was then calculated, and the green and red images were rescaled for visualization.
(§3) The degradation assay was performed as described above. […] Degradation was measured after 5 h of compound treatment and the concentrations that lead to half degradation at 5 h (DC50,5 h) were calculated using the nonlinear fit variable slope model (GraphPad Software).

[3] = molecular target: T2, IKZF1 (Homo sapiens, UniProt Q13422); assay: Cellular degradation assay, eGFP-IKZF1Δ fusion with mCherry reporter in Flp-In 293 cells; format: cell-based; conditions: for IKZF1 GFP/RFP Relative Abundance: 5 h incubation, n=1
T2 construct: expressed in transfected cells; host or cells: Flp-In 293
T2 sequence (Q13422 83-213 isoform Q13422-7 limits assumed): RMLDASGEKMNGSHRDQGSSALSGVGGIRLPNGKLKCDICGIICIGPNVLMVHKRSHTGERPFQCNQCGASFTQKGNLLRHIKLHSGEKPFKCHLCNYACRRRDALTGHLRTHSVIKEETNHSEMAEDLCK
T2 sequence (Q96SW2 whole entry partner, the tested form may be a part): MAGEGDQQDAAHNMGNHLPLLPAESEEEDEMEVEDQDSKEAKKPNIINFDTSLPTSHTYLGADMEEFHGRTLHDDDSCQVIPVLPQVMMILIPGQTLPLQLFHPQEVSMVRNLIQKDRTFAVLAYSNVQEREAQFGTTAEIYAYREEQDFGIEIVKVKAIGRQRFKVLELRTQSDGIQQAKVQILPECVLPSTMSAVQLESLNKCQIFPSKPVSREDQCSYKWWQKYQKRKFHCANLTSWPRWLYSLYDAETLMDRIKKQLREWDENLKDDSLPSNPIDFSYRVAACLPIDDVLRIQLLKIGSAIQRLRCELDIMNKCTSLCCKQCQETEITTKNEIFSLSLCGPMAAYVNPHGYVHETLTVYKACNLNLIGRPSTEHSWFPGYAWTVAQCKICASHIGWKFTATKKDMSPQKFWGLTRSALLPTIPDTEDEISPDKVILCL
T2 sequence (Q16531 2-1140 partner limits assumed): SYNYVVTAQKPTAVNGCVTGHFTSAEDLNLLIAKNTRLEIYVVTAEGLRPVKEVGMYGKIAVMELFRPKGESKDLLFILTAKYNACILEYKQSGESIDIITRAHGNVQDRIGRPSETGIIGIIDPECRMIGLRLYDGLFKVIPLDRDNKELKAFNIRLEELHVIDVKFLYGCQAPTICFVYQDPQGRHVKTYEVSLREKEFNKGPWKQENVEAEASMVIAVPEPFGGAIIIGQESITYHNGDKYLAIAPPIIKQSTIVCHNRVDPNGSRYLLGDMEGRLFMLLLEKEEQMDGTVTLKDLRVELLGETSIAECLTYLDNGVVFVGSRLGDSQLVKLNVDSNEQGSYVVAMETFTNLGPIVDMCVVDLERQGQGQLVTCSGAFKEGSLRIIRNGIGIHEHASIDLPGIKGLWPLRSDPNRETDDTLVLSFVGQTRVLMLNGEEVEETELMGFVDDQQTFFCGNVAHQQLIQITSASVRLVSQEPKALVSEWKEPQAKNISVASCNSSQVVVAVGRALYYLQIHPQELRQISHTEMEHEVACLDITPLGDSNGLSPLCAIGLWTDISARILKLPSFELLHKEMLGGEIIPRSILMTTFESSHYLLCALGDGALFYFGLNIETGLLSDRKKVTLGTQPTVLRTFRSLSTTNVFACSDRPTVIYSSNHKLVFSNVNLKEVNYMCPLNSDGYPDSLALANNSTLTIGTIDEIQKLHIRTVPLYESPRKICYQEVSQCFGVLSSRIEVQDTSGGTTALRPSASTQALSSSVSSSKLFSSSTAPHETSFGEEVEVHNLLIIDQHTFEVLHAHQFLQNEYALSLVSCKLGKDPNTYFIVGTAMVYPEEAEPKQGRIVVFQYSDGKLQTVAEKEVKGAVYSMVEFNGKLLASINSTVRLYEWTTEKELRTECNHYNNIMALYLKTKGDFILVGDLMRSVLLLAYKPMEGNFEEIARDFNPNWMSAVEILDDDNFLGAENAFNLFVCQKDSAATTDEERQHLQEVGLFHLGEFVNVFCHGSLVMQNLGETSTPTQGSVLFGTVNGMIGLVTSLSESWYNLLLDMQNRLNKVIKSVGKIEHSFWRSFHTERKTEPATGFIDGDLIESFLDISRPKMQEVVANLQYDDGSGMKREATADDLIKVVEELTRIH
Procedure: as §1, §2, §3

[4] = molecular target: GSPT1 (Homo sapiens, UniProt P15170+Q96SW2); assay: Cellular degradation assay, eGFP-GSPT1 fusion with mCherry reporter in Flp-In 293 cells; format: cell-based; set-up: expressed in transfected cells; host or cells: Flp-In 293; conditions: for GSPT1 GFP/RFP Relative Abundance: 5 h incubation, n=1
GSPT1, sequence (P15170 whole entry, the tested form may be a part): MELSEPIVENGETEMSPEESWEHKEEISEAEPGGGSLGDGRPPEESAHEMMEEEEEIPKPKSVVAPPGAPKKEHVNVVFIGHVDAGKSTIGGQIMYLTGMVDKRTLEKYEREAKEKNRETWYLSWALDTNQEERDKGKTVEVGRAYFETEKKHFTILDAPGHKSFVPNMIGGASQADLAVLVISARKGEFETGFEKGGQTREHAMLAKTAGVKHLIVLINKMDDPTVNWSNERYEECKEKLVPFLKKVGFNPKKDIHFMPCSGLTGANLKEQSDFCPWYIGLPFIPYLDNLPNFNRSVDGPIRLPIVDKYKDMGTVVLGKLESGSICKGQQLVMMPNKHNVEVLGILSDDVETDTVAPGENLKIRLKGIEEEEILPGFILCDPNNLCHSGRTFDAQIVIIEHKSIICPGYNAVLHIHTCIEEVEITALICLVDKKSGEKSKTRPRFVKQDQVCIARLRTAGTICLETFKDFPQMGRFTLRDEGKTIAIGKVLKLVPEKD
GSPT1, sequence (Q96SW2 whole entry, the tested form may be a part): as the sequence (Q96SW2 whole entry partner, the tested form may be a part) above
GSPT1, sequence (Q16531 whole entry partner, the tested form may be a part): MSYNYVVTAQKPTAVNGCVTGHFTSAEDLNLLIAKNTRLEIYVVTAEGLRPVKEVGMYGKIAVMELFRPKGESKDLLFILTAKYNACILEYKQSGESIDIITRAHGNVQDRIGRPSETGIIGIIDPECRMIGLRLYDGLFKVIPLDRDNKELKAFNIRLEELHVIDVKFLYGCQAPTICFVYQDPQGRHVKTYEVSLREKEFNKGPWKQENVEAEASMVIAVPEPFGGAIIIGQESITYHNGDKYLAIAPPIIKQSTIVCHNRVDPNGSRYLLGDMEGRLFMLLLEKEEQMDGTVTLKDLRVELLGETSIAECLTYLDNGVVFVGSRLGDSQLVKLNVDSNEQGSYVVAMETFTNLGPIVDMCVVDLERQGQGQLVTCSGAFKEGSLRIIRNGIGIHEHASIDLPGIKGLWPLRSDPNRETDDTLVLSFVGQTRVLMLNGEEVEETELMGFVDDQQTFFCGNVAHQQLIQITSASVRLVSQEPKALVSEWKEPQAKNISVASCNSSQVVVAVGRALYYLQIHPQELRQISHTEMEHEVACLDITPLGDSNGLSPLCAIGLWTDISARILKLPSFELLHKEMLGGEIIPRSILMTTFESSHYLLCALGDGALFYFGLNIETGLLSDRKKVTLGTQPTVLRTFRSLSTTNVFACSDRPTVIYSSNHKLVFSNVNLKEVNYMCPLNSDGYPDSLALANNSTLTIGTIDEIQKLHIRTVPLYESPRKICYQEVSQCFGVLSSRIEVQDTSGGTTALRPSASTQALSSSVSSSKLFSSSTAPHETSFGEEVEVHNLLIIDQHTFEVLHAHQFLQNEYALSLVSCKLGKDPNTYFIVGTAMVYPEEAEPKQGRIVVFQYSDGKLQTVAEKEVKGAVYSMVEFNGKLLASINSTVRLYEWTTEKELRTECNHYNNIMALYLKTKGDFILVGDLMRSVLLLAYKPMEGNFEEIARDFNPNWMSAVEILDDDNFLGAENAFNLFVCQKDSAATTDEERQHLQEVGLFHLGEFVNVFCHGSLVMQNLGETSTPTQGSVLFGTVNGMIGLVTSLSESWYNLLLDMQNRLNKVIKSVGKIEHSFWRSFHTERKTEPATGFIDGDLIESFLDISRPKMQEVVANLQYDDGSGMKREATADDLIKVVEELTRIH
Procedure: as §1, §2, §3

[5] = compound concentration 6.6667E−05
[6] = compound concentration 6.6667E−06
[7] = compound concentration 6.6667E−07 (667 nM)
[8] = compound concentration 2.00E−05
[9] = compound concentration 2.00E−06
[10] = compound concentration 2.00E−07
[11] = half degradation at 5 h (DC50,5 h), triplicate, 11 point dose response

T1 sequence (Q96SW2 whole entry): as the sequence (Q96SW2 whole entry partner, the tested form may be a part) above
T1 sequence (Q9UKS7 whole entry): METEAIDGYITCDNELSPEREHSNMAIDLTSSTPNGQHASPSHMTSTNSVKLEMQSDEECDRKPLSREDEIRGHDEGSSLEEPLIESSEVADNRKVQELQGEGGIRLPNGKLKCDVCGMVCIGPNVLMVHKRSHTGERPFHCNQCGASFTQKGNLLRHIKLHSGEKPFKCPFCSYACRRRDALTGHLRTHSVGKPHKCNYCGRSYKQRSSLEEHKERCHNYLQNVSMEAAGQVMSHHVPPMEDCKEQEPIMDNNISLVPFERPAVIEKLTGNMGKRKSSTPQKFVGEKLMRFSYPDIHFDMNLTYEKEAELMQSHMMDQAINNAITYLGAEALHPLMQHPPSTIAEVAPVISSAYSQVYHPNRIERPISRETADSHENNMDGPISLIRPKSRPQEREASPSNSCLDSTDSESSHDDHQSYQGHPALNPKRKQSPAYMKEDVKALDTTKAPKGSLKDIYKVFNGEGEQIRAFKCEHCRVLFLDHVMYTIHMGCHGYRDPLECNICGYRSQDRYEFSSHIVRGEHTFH

SMILES | TR-FRET-IKZF2 (Normalized to CC-885) [1, 5] | TR-FRET-IKZF2 (Normalized to CC-885) [1, 6] | TR-FRET-IKZF2 (Normalized to CC-885) [1, 7] | IKZF2 GFP/RFP Relative Abundance [2, 8] | IKZF2 GFP/RFP Relative Abundance [2, 9] | IKZF2 GFP/RFP Relative Abundance [2, 10] | IKZF1 GFP/RFP Relative Abundance [3, 8] | IKZF1 GFP/RFP Relative Abundance [3, 9] | IKZF1 GFP/RFP Relative Abundance [3, 10] | GSPT1 GFP/RFP Relative Abundance [4, 8] | GSPT1 GFP/RFP Relative Abundance [4, 9] | GSPT1 GFP/RFP Relative Abundance [4, 10] | DC50 [2, 11] [nM] | potency of IKZF1 degradation, in words ([3]; Table 3 summary) | DC50 [3, 11] [nM] | DC50 [4, 11] [nM]
Cc1ccc(NC(=O)OCc2cccc(NC3=CC(=O)N(C4CCC(=O)NC4=O)C3=O)c2)cc1Cl (stereo not shown) [Compound 48, 3-((1-(2,6-dioxopiperidin-3-yl)-2,5-dioxo-2,5-dihydro-1H-pyrrol-3-yl)amino)benzyl (3-chloro-4-methylphenyl)carbamate] | 0.140 | 0.079 | 0.044 | 1.053 | 1.076 | 1.057 | 1.041 | 0.903 | 1.000 | 1.591 | 0.365 | 0.579 |  |  |  | 
Cc1ccc(NC(=O)c2cccc(NC3=CC(=O)N(C4CCC(=O)NC4=O)C3=O)c2)cc1Cl (stereo not shown) [Compound 49, N-(3-chloro-4-methylphenyl)-3-((1-(2,6-dioxopiperidin-3-yl)-2,5-dioxo-2,5-dihydro-1H-pyrrol-3-yl)amino)benzamide] | 0.801 | 0.690 | 0.472 | 0.665 | 0.612 | 0.830 | 0.268 | 0.187 | 0.314 | 0.125 | 0.055 | 0.069 | 7.2 | most potent against IKZF1 | 1.9 | > 1000
Cc1ccc(NC(=O)Cc2cccc(NC3=CC(=O)N(C4CCC(=O)NC4=O)C3=O)c2)cc1Cl (stereo not shown) [Compound 50, N-(3-chloro-4-methylphenyl)-2-(3-((1-(2,6-dioxopiperidin-3-yl)-2,5-dioxo-2,5-dihydro-1H-pyrrol-3-yl)amino)phenyl)acetamide] | 1.011 | 0.889 | 0.848 | 0.188 | 0.195 | 0.267 | 0.073 | 0.068 | 0.093 | 0.645 | 0.702 | 0.643 |  |  |  | 
Cc1ccc(NC(=O)Oc2cccc(NC3=CC(=O)N(C4CCC(=O)NC4=O)C3=O)c2)cc1Cl (stereo not shown) [Compound 51, 3-((1-(2,6-dioxopiperidin-3-yl)-2,5-dioxo-2,5-dihydro-1H-pyrrol-3-yl)amino)phenyl (3-chloro-4-methylphenyl)carbamate] | 0.037 | 0.032 | 0.017 | 1.083 | 1.044 | 1.024 | 0.861 | 1.001 | 1.026 | 1.680 | 0.829 | 0.775 |  |  |  | 
Cc1ccc(NC(=O)N(C)Cc2cccc(NC3=CC(=O)N(C4CCC(=O)NC4=O)C3=O)c2)cc1Cl (stereo not shown) [Compound 52, 3-(3-chloro-4-methylphenyl)-1-(3-((1-(2,6-dioxopiperidin-3-yl)-2,5-dioxo-2,5-dihydro-1H-pyrrol-3-yl)amino)benzyl)-1-methylurea] | 1.559 | 1.367 | 1.205 | 0.058 | 0.059 | 0.062 | 0.103 | 0.092 | 0.080 | 0.308 | 0.815 | 0.787 |  |  |  | 
